Laboratory results: PMC5688144, “Assay interference and off-target liabilities of reported histone acetyltransferase inhibitors” (Nature Communications, 2017)
“Also recorded” adds a separate entry of the source.

Legend:
[1] = molecular target: T1, human La antigen (Homo sapiens, UniProt P05455, T302N); test: ALARM NMR; assay type: binding; conditions: 400 μM compound; for ALARM NMR, (-) DTT: 0 mM DTT; for ALARM NMR, (+) DTT: DTT present; for ALARM NMR interpretation: with and without DTT
T1 construct: amino acids 100–324 of the human La antigen (plus T302N mutation); 6xHis (N); 6xHis (C); host or cells: Escherichia coli Rosetta cells
T1 sequence (P05455 100-324 T302N): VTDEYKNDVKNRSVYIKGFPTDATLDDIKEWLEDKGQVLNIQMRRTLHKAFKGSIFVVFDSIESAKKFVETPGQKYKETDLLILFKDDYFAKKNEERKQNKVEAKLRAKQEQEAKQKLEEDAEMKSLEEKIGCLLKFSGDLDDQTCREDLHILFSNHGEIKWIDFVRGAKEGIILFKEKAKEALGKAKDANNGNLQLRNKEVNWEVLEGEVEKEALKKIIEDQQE
How it was run: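 Construct is La residues 100–324, His-tagged, with Ile/Val methyls 13C-labelled, pre-reduced with DTT and then dialysed. Protein (50 μM) was incubated with 400 μM compound ± 20 mM DTT in 25 mM sodium phosphate pH 7.0, 4% DMSO, for 1 h at 37 °C then 15 h at 30 °C. [1H-13C]-HMQC was recorded at 298 K, and shift or intensity changes were scored against DMSO controls.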

[2] = molecular target: T2, AmpC β-lactamase (Escherichia coli, UniProt P00811); test: biochemical; set-up: species or system E. coli; conditions: for AmpC aggregation counter-screen / AmpC counter-screen result: 10 μM compound; for AmpC aggregation counter-screen: ± 0.01% Triton X-100; for AmpC counter-screen result: detergent-sensitive modulation; for inhibition at 10 µM: read-out: % Inhibition, AmpC
T2 construct: Recombinant E. coli AmpC (amino acids 20–377); purchased MyBioSource.com
How it was run: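 Compounds at 10 μM (2% DMSO, triplicate) were preincubated 5 min at RT with ~5 nM E. coli AmpC (residues 20–377) in 25 mM sodium phosphate pH 7.0, with or without 0.01% Triton X-100, then given 100 μM nitrocefin. Activity was normalized to DMSO; aggregation was called on a detergent-dependent change >30% (adjusted P <0.05).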

[3] = Fluorescence quenching counter-screen; assay type: physicochemical; conditions: 10 μM fluorophore; 32 nM-100 μM compound
Procedure: Selected test compounds were assessed for fluorescence quenching using adaptions of previously published procedures[9],[24]. Briefly, test compounds and individual fluorophore standards were incubated together. The fluorescence intensity of these mixtures was compared to the fluorescence intensity of the same fluorophore standards minus test compounds. Each microplate contained positive control columns (DMSO plus fixed concentration of a single fluorophore), negative control columns (DMSO), and experimental wells (test compounds plus fixed concentration of a single fluorophore). […] Final concentration of DMSO was constant at 2.0% (v/v). […] All measurements were performed in ALARM NMR buffer (25 mM sodium phosphate, pH 7.0) at 25 °C. Aliquots of 20 μL buffer were dispensed into microplate wells via ThermoFisher Multidrop dispenser. Microplates were shaken for 1 min on a plate shaker, centrifuged briefly for 1 min at 1000×g, then allowed to incubate at RT for 10 min before measuring fluorescence intensity on a SpectraMax M3 plate reader under reduced lighting. Instrument settings for each fluorophore were unchanged from the aforementioned autofluorescence studies.

Compound	ALARM NMR, (-) DTT [1]	ALARM NMR, (+) DTT [1]	ALARM NMR interpretation [1]	AmpC aggregation counter-screen [2]	Quenching counter-screen [3]	AmpC counter-screen result [2]	inhibition at 10 µM [2] [%]	ALARM NMR readout ([1]; overall readout)
CCCCCCCCCCCCCCCc1cccc(O)c1C(=O)O [Compound 14, Anacardic acid]	Positive	Positive	Nonspecific perturbation	Detergent-sensitive (Aggregators were defined as compounds with significant detergent-dependent changes in AmpC activity (t-test, adjusted P-value <0.05; mean differences greater than 30%))	Flagged (Significant fluorescence quenching was defined as signal reduction greater than 25% of the corresponding fluorophore signal at any test compound concentration)	–	–	–
CCCCCCCc1ccc(CCc2cccc(O)c2C(=O)O)cc1 [Compound 15, MG 149]	Positive	Positive	nonspecific protein perturbation; also recorded: potential aggregator	Detergent-insensitive	Flagged (Significant fluorescence quenching was defined as signal reduction greater than 25% of the corresponding fluorophore signal at any test compound concentration)	negative	–	–
Cc1cc2c(C(C)C)c(O)c(O)c(C=O)c2c(O)c1-c1c(C)cc2c(C(C)C)c(O)c(O)c(C=O)c2c1O [Compound 16, Gossypol]	Positive	Positive	nonspecific protein perturbation	Detergent-sensitive (Aggregators were defined as compounds with significant detergent-dependent changes in AmpC activity (t-test, adjusted P-value <0.05; mean differences greater than 30%))	Flagged (Significant fluorescence quenching was defined as signal reduction greater than 25% of the corresponding fluorophore signal at any test compound concentration)	–	–	–
COc1cc(/C=C/c2cc(/C=C/c3ccc(O)c(OC)c3)n(-c3ccc(C(=O)[O-])cc3)n2)ccc1O.[Na+] [Compound 17, CTK7A]	Positive	Positive	several new peaks independent of DTT; also recorded: Nonspecific perturbation (new peaks)	Detergent-sensitive (activator)	Flagged (Significant fluorescence quenching was defined as signal reduction greater than 25% of the corresponding fluorophore signal at any test compound concentration)	–	-52 ± 35	–
COc1ccc(/C(Cl)=C(/C=O)c2ccc(OC)cc2)cc1 [Compound 18, Windorphen]	Negative	Negative	Inert as tested	Detergent-insensitive	Flagged (Significant fluorescence quenching was defined as signal reduction greater than 25% of the corresponding fluorophore signal at any test compound concentration)	–	–	negative
Cl.Cl.O=C(O)Cn1nnc(-c2ccc(CN(CCCCOc3ccc(CN4CCCC4)cc3)CCc3ccccc3)cc2)n1 [Compound 20, TH1834]	Negative	Negative	Inert as tested	Detergent-sensitive (activator)	Flagged (Significant fluorescence quenching was defined as signal reduction greater than 25% of the corresponding fluorophore signal at any test compound concentration)	likely aggregators	-63 ± 26	–
CCCC1(c2ccccc2)NC(=O)N(CC(=O)N(C)Cc2c(F)cccc2Cl)C1=O (centres unmarked) [Compound 21, N-[(2-chloro-6-fluorophenyl)methyl]-2-(2,5-dioxo-4-phenyl-4-propylimidazolidin-1-yl)-N-methylacetamide]	Negative	Negative	Inert as tested	Detergent-insensitive	Flagged (Significant fluorescence quenching was defined as signal reduction greater than 25% of the corresponding fluorophore signal at any test compound concentration)	–	–	–
Garcinol [Compound 13]	Positive	Positive	Nonspecific perturbation	Detergent-sensitive (Aggregators were defined as compounds with significant detergent-dependent changes in AmpC activity (t-test, adjusted P-value <0.05; mean differences greater than 30%))	Flagged (Significant fluorescence quenching was defined as signal reduction greater than 25% of the corresponding fluorophore signal at any test compound concentration)	–	–	–
Plumbagin [Compound 8]	Positive	Negative	Thiol-reactive	Detergent-insensitive	Negative	–	–	–
